In US4746675A, “External pharmaceutical composition” (Teijin Limited, priority 1983, dated 1988):
Like-named read-outs stand apart in the source and are kept apart here.

Experiments:
[1] = tested on: eye (cornea, iris, conjunctiva); experiment: primary eye irritation (Draize) in rabbits; assay type: in vivo, white native male rabbits; settings: average of three rabbits
Procedure: enhancers of this invention shown in Table 17 was applied dropwise to one eye of white native male rabbits (body weight 2.0 to 3.0 kg; 3 per group) which, it had been ascertained, were free from any trouble at the cornea, iris and conjunctiva. Nothing was applied to the other eye. Thus, irritation of the absorption aid to the mucous membrane of the eyes were examined, and scores were calculated in accordance with the Draize's eye irritation evaluating method [Association of Foods, "Drugs and Cosmetics" (1957)].
As a control, sodium laurylsulfate, a kind of surface-active agent, was evaluated in the same way, and the results are also shown in Table 17.

[2] = tested on: carrageenan edema; experiment: carrageenan edema inhibiting effect of betamethasone valerate ointments; assay type: in vivo, rat; settings: Table 5, betamethasone valerate ointment with penetration enhancer
Procedure: An ointment was prepared from 0.15 part by weight of betamethasone valerate, 9.85 parts by weight of compound (168) and 90 parts by weight of the hydrophilic ointment.
In accordance with the method of R. Passarella et al. [Argneim. Forsch 30, (I), Nr. 4, 647-651 (1980)], the carrageenan edema inhibiting effect of the above ointment was examined. Specifically, 0.1 ml of a 1% carrageenan suspension in 0.9% NaCl solution was injected into the tip of the right leg of a rat (body weight 150-175 g). The foot volume was measured immediately after administration of carrageenan and 3, 5, and 6 hours after the administration by means of a mercury displacement device. 0.5, 1 and 2 hours after the administration of carrageenan, 100 mg of the ointment was well […] into each of the sites which underwent inflammation.
Various ointments were prepared from 0.15 part by weight of betamethasone valerate, […] of the various penetration enhancers shown in Table 5, and 85 parts by weight of the hydrophilic ointment, and tested in the same way as in Example 23.

[3] = diffusion of drug through egg shell membrane in diffusion cell; assay type: in vitro ADME
Procedure: A diffusion cell was partitioned by an egg shell membrane. […] While maintaining a temperature of 37° C., the two liquid phases were stirred, and after a lapse of a predetermined period of time, the amount of the drug which diffused into the acceptor side from the donor side was measured.
The diffusion cell used was a glass cell for use in an ordinary diffusion experiment. The egg shell was obtained by removing the contents of an egg from the shell, immersing the shell in 0.7% acetic acid for 30 minutes, subjecting it to ultrasonication for 15 minutes, and carefully peeling the membrane from the shell.
A control test was carried out in the same way as above except that only the drug was added to the donor side.
The amount of the drug which diffused to the acceptor side was measured 30 minutes later, and compared with the control.
The relative amount of the drug diffused from the drug-penetration enhancer system was calculated by taking the amount of the drug diffused from the control donor side as 100. […] Bull., Vol. 20, p.

[4] = 30 minutes, drug 0.05% with compound (168) 1.0% on donor side, drug alone = 100, 37° C.

CCCCCCCCCCCC(=O)OCC(O)COC(=O)[C@@H]1CCC(=O)N1 (stereo partly shown) [Compound (172), 3-dodecanoyloxy-2-hydroxy-1-pyroglutamyloxypropane]
18.1%: Percentage inhibition vs. control ([2]; 3 hrs)
3.3: Primary irritation score, Conjunctiva ([1]; 2.4% soln, 1 hour) | Primary irritation score, Total ([1]; 2.4% soln, 1 hour)
35.5%: Percentage inhibition vs. control ([2]; 6 hrs)
37.2%: Percentage inhibition vs. control ([2]; 5 hrs)
0: Primary irritation score, Cornea ([1]; 2.4% soln, 1 hour) | Primary irritation score, Iris ([1]; 2.4% soln, 1 hour) | Primary irritation score, Cornea ([1]; 2.4% soln, 3 hours) | Primary irritation score, Iris ([1]; 2.4% soln, 3 hours) | Primary irritation score, Cornea ([1]; 2.4% soln, 6 hours) | Primary irritation score, Iris ([1]; 2.4% soln, 6 hours) | Primary irritation score, Conjunctiva ([1]; 2.4% soln, 24 hours) | Primary irritation score, Cornea ([1]; 2.4% soln, 24 hours) | Primary irritation score, Iris ([1]; 2.4% soln, 24 hours) | Primary irritation score, Total ([1]; 2.4% soln, 24 hours) | Primary irritation score, Conjunctiva ([1]; 2.4% soln, 48 hours) | Primary irritation score, Cornea ([1]; 2.4% soln, 48 hours) | Primary irritation score, Iris ([1]; 2.4% soln, 48 hours) | Primary irritation score, Total ([1]; 2.4% soln, 48 hours) | Primary irritation score, Conjunctiva ([1]; 2.4% soln, 72 hours) | Primary irritation score, Cornea ([1]; 2.4% soln, 72 hours) | Primary irritation score, Iris ([1]; 2.4% soln, 72 hours) | Primary irritation score, Total ([1]; 2.4% soln, 72 hours) | Primary irritation score, Conjunctiva ([1]; 2.4% soln, 96 hours) | Primary irritation score, Cornea ([1]; 2.4% soln, 96 hours) | Primary irritation score, Iris ([1]; 2.4% soln, 96 hours) | Primary irritation score, Total ([1]; 2.4% soln, 96 hours) | Primary irritation score, Conjunctiva ([1]; 2.4% soln, 168 hours) | Primary irritation score, Cornea ([1]; 2.4% soln, 168 hours) | Primary irritation score, Iris ([1]; 2.4% soln, 168 hours) | Primary irritation score, Total ([1]; 2.4% soln, 168 hours)
1.3: Primary irritation score, Conjunctiva ([1]; 2.4% soln, 6 hours) | Primary irritation score, Total ([1]; 2.4% soln, 6 hours)
2.0: Primary irritation score, Conjunctiva ([1]; 2.4% soln, 3 hours) | Primary irritation score, Total ([1]; 2.4% soln, 3 hours)

CN1[C@@H]2C[C@@H](OC(=O)[C@H](CO)c3ccccc3)C[C@H]1[C@@H]1O[C@@H]12 [Scopolamine]
116: Relative amount of the drug diffused [3, 4]

CN1C(=O)CN=C(c2ccccc2)c2cc(Cl)ccc21 [Diazepam]
144: Relative amount of the drug diffused [3, 4]

CC1(C)O[C@@H]2C[C@H]3[C@@H]4CCC5=CC(=O)C=C[C@]5(C)[C@@]4(F)[C@@H](O)C[C@]3(C)[C@]2(C(=O)CO)O1 [Triamcinolone acetonide]
214: Relative amount of the drug diffused [3, 4]

CCN(CC)CCOC(=O)c1ccc(N)cc1 [Procaine]
149: Relative amount of the drug diffused [3, 4]

Cc1ccc(Cl)c(OCC(O)CNC(C)(C)C)c1 (stereo not shown) [Bupranolol]
141: Relative amount of the drug diffused [3]

CCC=CCCCCCCCCOCC(O)COC(=O)[C@@H]1CCC(=O)N1 (stereo partly shown) [Compound (134), 3-(9-dodecenyloxy)-2-hydroxy-1-pyroglutamyloxypropane]
3.3: Primary irritation score, Conjunctiva ([1]; 2.4% soln, 1 hour) | Primary irritation score, Total ([1]; 2.4% soln, 1 hour)
16.4%: Percentage inhibition vs. control ([2]; 3 hrs)
30.3%: Percentage inhibition vs. control ([2]; 5 hrs)
0: Primary irritation score, Cornea ([1]; 2.4% soln, 1 hour) | Primary irritation score, Iris ([1]; 2.4% soln, 1 hour) | Primary irritation score, Cornea ([1]; 2.4% soln, 3 hours) | Primary irritation score, Iris ([1]; 2.4% soln, 3 hours) | Primary irritation score, Cornea ([1]; 2.4% soln, 6 hours) | Primary irritation score, Iris ([1]; 2.4% soln, 6 hours) | Primary irritation score, Conjunctiva ([1]; 2.4% soln, 24 hours) | Primary irritation score, Cornea ([1]; 2.4% soln, 24 hours) | Primary irritation score, Iris ([1]; 2.4% soln, 24 hours) | Primary irritation score, Total ([1]; 2.4% soln, 24 hours) | Primary irritation score, Conjunctiva ([1]; 2.4% soln, 48 hours) | Primary irritation score, Cornea ([1]; 2.4% soln, 48 hours) | Primary irritation score, Iris ([1]; 2.4% soln, 48 hours) | Primary irritation score, Total ([1]; 2.4% soln, 48 hours) | Primary irritation score, Conjunctiva ([1]; 2.4% soln, 72 hours) | Primary irritation score, Cornea ([1]; 2.4% soln, 72 hours) | Primary irritation score, Iris ([1]; 2.4% soln, 72 hours) | Primary irritation score, Total ([1]; 2.4% soln, 72 hours) | Primary irritation score, Conjunctiva ([1]; 2.4% soln, 96 hours) | Primary irritation score, Cornea ([1]; 2.4% soln, 96 hours) | Primary irritation score, Iris ([1]; 2.4% soln, 96 hours) | Primary irritation score, Total ([1]; 2.4% soln, 96 hours) | Primary irritation score, Conjunctiva ([1]; 2.4% soln, 168 hours) | Primary irritation score, Cornea ([1]; 2.4% soln, 168 hours) | Primary irritation score, Iris ([1]; 2.4% soln, 168 hours) | Primary irritation score, Total ([1]; 2.4% soln, 168 hours)
34.2%: Percentage inhibition vs. control ([2]; 6 hrs)
1.3: Primary irritation score, Conjunctiva ([1]; 2.4% soln, 3 hours) | Primary irritation score, Total ([1]; 2.4% soln, 3 hours) | Primary irritation score, Conjunctiva ([1]; 2.4% soln, 6 hours) | Primary irritation score, Total ([1]; 2.4% soln, 6 hours)

CCCCCCCCC1(CCCCCCCC)OCC(COC(=O)C2CCC(=O)N2)O1 (stereo not shown) [Compound (214), 2,3-dioxo-(dioctyl)methylene-1-pyroglutamyloxypropane]
2.0: Primary irritation score, Conjunctiva ([1]; 2.4% soln, 1 hour) | Primary irritation score, Total ([1]; 2.4% soln, 1 hour) | Primary irritation score, Conjunctiva ([1]; 2.4% soln, 3 hours) | Primary irritation score, Total ([1]; 2.4% soln, 3 hours) | Primary irritation score, Conjunctiva ([1]; 2.4% soln, 6 hours) | Primary irritation score, Total ([1]; 2.4% soln, 6 hours)
35.5%: Percentage inhibition vs. control ([2]; 6 hrs)
35.3%: Percentage inhibition vs. control ([2]; 5 hrs)
18.2%: Percentage inhibition vs. control ([2]; 3 hrs)
0: Primary irritation score, Cornea ([1]; 2.4% soln, 1 hour) | Primary irritation score, Iris ([1]; 2.4% soln, 1 hour) | Primary irritation score, Cornea ([1]; 2.4% soln, 3 hours) | Primary irritation score, Iris ([1]; 2.4% soln, 3 hours) | Primary irritation score, Cornea ([1]; 2.4% soln, 6 hours) | Primary irritation score, Iris ([1]; 2.4% soln, 6 hours) | Primary irritation score, Conjunctiva ([1]; 2.4% soln, 24 hours) | Primary irritation score, Cornea ([1]; 2.4% soln, 24 hours) | Primary irritation score, Iris ([1]; 2.4% soln, 24 hours) | Primary irritation score, Total ([1]; 2.4% soln, 24 hours) | Primary irritation score, Conjunctiva ([1]; 2.4% soln, 48 hours) | Primary irritation score, Cornea ([1]; 2.4% soln, 48 hours) | Primary irritation score, Iris ([1]; 2.4% soln, 48 hours) | Primary irritation score, Total ([1]; 2.4% soln, 48 hours) | Primary irritation score, Conjunctiva ([1]; 2.4% soln, 72 hours) | Primary irritation score, Cornea ([1]; 2.4% soln, 72 hours) | Primary irritation score, Iris ([1]; 2.4% soln, 72 hours) | Primary irritation score, Total ([1]; 2.4% soln, 72 hours) | Primary irritation score, Conjunctiva ([1]; 2.4% soln, 96 hours) | Primary irritation score, Cornea ([1]; 2.4% soln, 96 hours) | Primary irritation score, Iris ([1]; 2.4% soln, 96 hours) | Primary irritation score, Total ([1]; 2.4% soln, 96 hours) | Primary irritation score, Conjunctiva ([1]; 2.4% soln, 168 hours) | Primary irritation score, Cornea ([1]; 2.4% soln, 168 hours) | Primary irritation score, Iris ([1]; 2.4% soln, 168 hours) | Primary irritation score, Total ([1]; 2.4% soln, 168 hours)

CCCCCCCCCCCCOCC(O)COC(=O)[C@@H]1CCC(=O)N1 (stereo partly shown) [Compound (108), 3-dodecyloxy-2-hydroxy-1-pyroglutamyloxypropane]
2.0: Primary irritation score, Conjunctiva ([1]; 0.8% soln, 1 hour) | Primary irritation score, Total ([1]; 0.8% soln, 1 hour) | Primary irritation score, Conjunctiva ([1]; 0.8% soln, 3 hours) | Primary irritation score, Total ([1]; 0.8% soln, 3 hours)
1.3: Primary irritation score, Conjunctiva ([1]; 0.8% soln, 6 hours) | Primary irritation score, Total ([1]; 0.8% soln, 6 hours)
0: Primary irritation score, Cornea ([1]; 0.8% soln, 1 hour) | Primary irritation score, Iris ([1]; 0.8% soln, 1 hour) | Primary irritation score, Cornea ([1]; 0.8% soln, 3 hours) | Primary irritation score, Iris ([1]; 0.8% soln, 3 hours) | Primary irritation score, Cornea ([1]; 0.8% soln, 6 hours) | Primary irritation score, Iris ([1]; 0.8% soln, 6 hours) | Primary irritation score, Conjunctiva ([1]; 0.8% soln, 24 hours) | Primary irritation score, Cornea ([1]; 0.8% soln, 24 hours) | Primary irritation score, Iris ([1]; 0.8% soln, 24 hours) | Primary irritation score, Total ([1]; 0.8% soln, 24 hours) | Primary irritation score, Conjunctiva ([1]; 0.8% soln, 48 hours) | Primary irritation score, Cornea ([1]; 0.8% soln, 48 hours) | Primary irritation score, Iris ([1]; 0.8% soln, 48 hours) | Primary irritation score, Total ([1]; 0.8% soln, 48 hours) | Primary irritation score, Conjunctiva ([1]; 0.8% soln, 72 hours) | Primary irritation score, Cornea ([1]; 0.8% soln, 72 hours) | Primary irritation score, Iris ([1]; 0.8% soln, 72 hours) | Primary irritation score, Total ([1]; 0.8% soln, 72 hours) | Primary irritation score, Conjunctiva ([1]; 0.8% soln, 96 hours) | Primary irritation score, Cornea ([1]; 0.8% soln, 96 hours) | Primary irritation score, Iris ([1]; 0.8% soln, 96 hours) | Primary irritation score, Total ([1]; 0.8% soln, 96 hours) | Primary irritation score, Conjunctiva ([1]; 0.8% soln, 168 hours) | Primary irritation score, Cornea ([1]; 0.8% soln, 168 hours) | Primary irritation score, Iris ([1]; 0.8% soln, 168 hours) | Primary irritation score, Total ([1]; 0.8% soln, 168 hours)
36.7%: Percentage inhibition vs. control ([2]; 5 hrs) | Percentage inhibition vs. control ([2]; 6 hrs)
20.1%: Percentage inhibition vs. control ([2]; 3 hrs)
